Experimental data taken from patent publication US10835533B2, “1 -((3S,4R)-4-(3-fluorophenyl)-1-(2-methoxyethyl)pyrrolidin-3-yl)-3-(4-methyl-3-(2-methylpyrimidin-5-yl)-1-phenyl-1H-pyrazol-5-yl)urea as a TrkA kinase inhibitor” (Array BioPharma Inc., priority 2014, dated 2020).

How the values were obtained:
Test in all cases: KinaseProfiler kinase profiling
Format in all cases: biochemical
Details in all cases: 10 μM, ATP near Km
PKD2 = biological target: T1, PKD2 (Homo sapiens, UniProt Q9BZL6)
T1 construct: purchased Millipore, Inc. (KinaseProfiler service)
How it was run: (§1)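 Screened once at 10 μM, n = 2, against the full available panel; ATP concentration was chosen near each kinase's Km. Mean POC reported.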

Fyn = biological target: T2, Fyn (Homo sapiens, UniProt P06241)
T2 construct: purchased Millipore, Inc. (KinaseProfiler service)
How it was run: as §1

HIPK1 = biological target: T3, HIPK1 (Homo sapiens, UniProt Q86Z02)
T3 construct: purchased Millipore, Inc. (KinaseProfiler service)
How it was run: as §1

CAMK2g = biological target: T4, CAMK2g (Homo sapiens, UniProt Q13555)
T4 construct: purchased Millipore, Inc. (KinaseProfiler service)
How it was run: as §1

WNK2 = biological target: T5, WNK2 (Homo sapiens, UniProt Q9Y3S1)
T5 construct: purchased Millipore, Inc. (KinaseProfiler service)
How it was run: as §1

PKCbetaI = biological target: T6, PKCbetaI (Homo sapiens, UniProt P05771)
T6 construct: purchased Millipore, Inc. (KinaseProfiler service)
How it was run: as §1

PAK2 = biological target: T7, PAK2 (Homo sapiens, UniProt Q13177)
T7 construct: purchased Millipore, Inc. (KinaseProfiler service)
How it was run: as §1

MKNK2 = biological target: T8, MKNK2 (Homo sapiens, UniProt Q9HBH9)
T8 construct: purchased Millipore, Inc. (KinaseProfiler service)
T8 sequence (Q9HBH9 whole entry): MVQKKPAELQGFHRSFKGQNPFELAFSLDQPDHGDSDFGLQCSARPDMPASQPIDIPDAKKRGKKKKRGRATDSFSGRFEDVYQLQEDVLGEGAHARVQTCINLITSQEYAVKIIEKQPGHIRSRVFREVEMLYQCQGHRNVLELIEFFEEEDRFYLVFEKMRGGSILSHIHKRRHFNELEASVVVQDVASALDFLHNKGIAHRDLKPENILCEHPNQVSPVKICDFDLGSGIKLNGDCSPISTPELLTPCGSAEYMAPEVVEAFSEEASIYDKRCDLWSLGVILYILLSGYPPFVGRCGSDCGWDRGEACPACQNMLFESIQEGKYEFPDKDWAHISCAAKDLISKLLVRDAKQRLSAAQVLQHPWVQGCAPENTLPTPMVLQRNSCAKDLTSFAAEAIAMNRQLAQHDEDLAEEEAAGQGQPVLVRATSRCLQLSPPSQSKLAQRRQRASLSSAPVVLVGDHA
How it was run: as §1

TrkB = biological target: T9, TrkB (Homo sapiens, UniProt Q16620)
T9 construct: purchased Millipore, Inc. (KinaseProfiler service)
How it was run: as §1

MKK7 = biological target: T10, MKK7 (Homo sapiens, UniProt O14733)
T10 construct: purchased Millipore, Inc. (KinaseProfiler service)
How it was run: as §1

GSK3alpha = biological target: T11, GSK3alpha (Homo sapiens, UniProt P49840)
T11 construct: purchased Millipore, Inc. (KinaseProfiler service)
How it was run: as §1

GRK5 = biological target: T12, GRK5 (Homo sapiens, UniProt P34947)
T12 construct: purchased Millipore, Inc. (KinaseProfiler service)
How it was run: as §1

KIT = biological target: T13, KIT (Homo sapiens, UniProt P10721)
T13 construct: purchased Millipore, Inc. (KinaseProfiler service)
How it was run: as §1

CK1gamma2 = biological target: T14, CK1gamma2 (Homo sapiens, UniProt P78368)
T14 construct: purchased Millipore, Inc. (KinaseProfiler service)
How it was run: as §1

EphA7 = biological target: T15, EphA7 (Homo sapiens, UniProt Q15375)
T15 construct: purchased Millipore, Inc. (KinaseProfiler service)
How it was run: as §1

MYLK = biological target: T16, MYLK (Homo sapiens, UniProt Q15746)
T16 construct: purchased Millipore, Inc. (KinaseProfiler service)
T16 sequence (Q15746 whole entry): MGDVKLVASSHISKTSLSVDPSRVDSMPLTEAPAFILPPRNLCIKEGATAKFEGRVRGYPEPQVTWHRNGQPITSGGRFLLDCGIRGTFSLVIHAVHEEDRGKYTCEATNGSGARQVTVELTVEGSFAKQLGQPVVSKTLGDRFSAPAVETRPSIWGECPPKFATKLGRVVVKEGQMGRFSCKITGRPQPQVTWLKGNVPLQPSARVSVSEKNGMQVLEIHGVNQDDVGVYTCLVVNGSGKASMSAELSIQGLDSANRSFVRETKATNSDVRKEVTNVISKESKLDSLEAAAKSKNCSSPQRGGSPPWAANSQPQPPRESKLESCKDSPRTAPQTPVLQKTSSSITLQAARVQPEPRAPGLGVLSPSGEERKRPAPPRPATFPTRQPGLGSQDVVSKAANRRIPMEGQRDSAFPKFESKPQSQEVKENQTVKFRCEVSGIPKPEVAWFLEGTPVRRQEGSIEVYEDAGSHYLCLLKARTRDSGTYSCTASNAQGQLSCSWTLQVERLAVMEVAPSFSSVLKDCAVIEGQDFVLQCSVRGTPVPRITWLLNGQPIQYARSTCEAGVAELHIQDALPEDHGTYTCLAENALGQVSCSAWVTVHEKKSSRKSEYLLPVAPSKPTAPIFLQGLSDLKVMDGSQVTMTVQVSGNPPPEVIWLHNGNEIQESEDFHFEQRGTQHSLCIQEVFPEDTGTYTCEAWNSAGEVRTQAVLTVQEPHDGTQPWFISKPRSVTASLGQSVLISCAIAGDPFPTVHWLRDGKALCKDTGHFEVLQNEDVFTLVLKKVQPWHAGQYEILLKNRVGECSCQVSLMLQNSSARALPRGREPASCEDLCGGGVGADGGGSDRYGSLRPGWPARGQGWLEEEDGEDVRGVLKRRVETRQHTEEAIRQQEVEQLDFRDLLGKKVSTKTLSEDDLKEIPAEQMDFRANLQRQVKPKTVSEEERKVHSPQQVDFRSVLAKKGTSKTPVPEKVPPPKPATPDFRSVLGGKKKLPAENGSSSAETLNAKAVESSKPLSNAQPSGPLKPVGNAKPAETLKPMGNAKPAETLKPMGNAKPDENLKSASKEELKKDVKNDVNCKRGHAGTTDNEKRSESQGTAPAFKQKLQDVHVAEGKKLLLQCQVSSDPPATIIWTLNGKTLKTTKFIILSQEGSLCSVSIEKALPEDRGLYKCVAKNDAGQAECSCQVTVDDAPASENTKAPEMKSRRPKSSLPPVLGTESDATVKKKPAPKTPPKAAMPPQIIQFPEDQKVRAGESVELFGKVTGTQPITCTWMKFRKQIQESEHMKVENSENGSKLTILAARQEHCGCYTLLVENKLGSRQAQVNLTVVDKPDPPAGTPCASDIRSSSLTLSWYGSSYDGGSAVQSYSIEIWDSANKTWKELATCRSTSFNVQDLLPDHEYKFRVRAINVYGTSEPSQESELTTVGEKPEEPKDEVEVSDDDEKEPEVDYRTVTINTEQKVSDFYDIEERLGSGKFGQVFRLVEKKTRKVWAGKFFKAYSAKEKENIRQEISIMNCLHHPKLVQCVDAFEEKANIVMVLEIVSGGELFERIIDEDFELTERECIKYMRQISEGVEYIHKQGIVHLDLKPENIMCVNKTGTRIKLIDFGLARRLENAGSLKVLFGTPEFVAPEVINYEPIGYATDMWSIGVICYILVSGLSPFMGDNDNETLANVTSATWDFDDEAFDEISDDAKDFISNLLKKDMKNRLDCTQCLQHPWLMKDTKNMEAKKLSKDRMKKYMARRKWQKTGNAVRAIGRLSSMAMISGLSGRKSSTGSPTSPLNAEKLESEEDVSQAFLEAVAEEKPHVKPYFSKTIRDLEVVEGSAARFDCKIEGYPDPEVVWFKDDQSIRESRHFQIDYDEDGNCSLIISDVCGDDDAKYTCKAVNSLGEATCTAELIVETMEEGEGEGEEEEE
How it was run: as §1

PKCepsilon = biological target: T17, PKCepsilon (Homo sapiens, UniProt Q02156)
T17 construct: purchased Millipore, Inc. (KinaseProfiler service)
T17 sequence (Q02156 whole entry): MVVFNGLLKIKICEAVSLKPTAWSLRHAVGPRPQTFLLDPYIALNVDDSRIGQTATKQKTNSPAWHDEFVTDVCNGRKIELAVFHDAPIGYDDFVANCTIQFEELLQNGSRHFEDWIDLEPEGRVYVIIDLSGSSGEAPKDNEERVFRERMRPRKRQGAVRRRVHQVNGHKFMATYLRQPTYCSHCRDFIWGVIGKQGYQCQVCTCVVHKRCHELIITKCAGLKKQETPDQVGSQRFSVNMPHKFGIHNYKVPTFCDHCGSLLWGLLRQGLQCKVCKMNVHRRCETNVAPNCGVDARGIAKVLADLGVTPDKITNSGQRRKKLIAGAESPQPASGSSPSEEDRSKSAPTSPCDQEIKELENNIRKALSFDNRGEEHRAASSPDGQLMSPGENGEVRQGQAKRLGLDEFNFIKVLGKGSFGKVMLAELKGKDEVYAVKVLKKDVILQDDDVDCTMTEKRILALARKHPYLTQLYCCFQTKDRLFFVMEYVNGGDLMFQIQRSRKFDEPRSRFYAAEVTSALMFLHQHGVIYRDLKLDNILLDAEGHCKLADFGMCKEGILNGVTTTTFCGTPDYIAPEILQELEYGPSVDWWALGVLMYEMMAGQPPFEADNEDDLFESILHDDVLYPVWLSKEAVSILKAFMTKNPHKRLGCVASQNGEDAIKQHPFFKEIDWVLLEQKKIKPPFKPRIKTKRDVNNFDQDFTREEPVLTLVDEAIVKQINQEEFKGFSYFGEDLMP
How it was run: as §1

IRAK1 = biological target: T18, IRAK1 (Homo sapiens, UniProt P51617)
T18 construct: purchased Millipore, Inc. (KinaseProfiler service)
How it was run: as §1

Plk3 = biological target: T19, Plk3 (Homo sapiens, UniProt Q9H4B4)
T19 construct: purchased Millipore, Inc. (KinaseProfiler service)
T19 sequence (Q9H4B4 whole entry): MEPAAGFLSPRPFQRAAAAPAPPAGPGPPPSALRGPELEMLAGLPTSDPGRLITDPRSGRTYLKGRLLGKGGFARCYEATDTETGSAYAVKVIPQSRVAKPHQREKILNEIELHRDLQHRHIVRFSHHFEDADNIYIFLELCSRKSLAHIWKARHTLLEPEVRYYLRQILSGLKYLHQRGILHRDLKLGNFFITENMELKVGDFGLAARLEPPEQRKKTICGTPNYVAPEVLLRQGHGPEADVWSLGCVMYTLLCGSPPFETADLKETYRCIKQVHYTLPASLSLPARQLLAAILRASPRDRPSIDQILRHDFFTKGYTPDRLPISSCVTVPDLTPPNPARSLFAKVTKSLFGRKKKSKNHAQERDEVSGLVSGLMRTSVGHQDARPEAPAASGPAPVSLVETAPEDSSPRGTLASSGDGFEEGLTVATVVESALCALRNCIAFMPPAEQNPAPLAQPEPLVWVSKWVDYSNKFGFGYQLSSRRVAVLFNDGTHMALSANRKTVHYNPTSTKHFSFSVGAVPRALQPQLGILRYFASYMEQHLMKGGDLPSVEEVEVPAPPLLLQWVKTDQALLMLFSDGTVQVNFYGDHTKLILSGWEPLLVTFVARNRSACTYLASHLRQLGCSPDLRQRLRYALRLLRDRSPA
How it was run: as §1

PKAC-alpha = biological target: T20, PKAC-alpha (Homo sapiens, UniProt P17612)
T20 construct: purchased Millipore, Inc. (KinaseProfiler service)
How it was run: as §1

PAK4 = biological target: T21, PAK4 (Homo sapiens, UniProt O96013)
T21 construct: purchased Millipore, Inc. (KinaseProfiler service)
How it was run: as §1

TSSK1 = biological target: T22, TSSK1 (Homo sapiens, UniProt Q9BXA7)
T22 construct: purchased Millipore, Inc. (KinaseProfiler service)
How it was run: as §1

DDR2 = biological target: T23, DDR2 (Homo sapiens, UniProt Q16832)
T23 construct: purchased Millipore, Inc. (KinaseProfiler service)
How it was run: as §1

PRKG1beta = biological target: T24, PRKG1beta (Homo sapiens, UniProt Q13976)
T24 construct: purchased Millipore, Inc. (KinaseProfiler service)
How it was run: as §1

MKK6 = biological target: T25, MKK6 (Homo sapiens, UniProt P52564)
T25 construct: purchased Millipore, Inc. (KinaseProfiler service)
How it was run: as §1

NEK3 = biological target: T26, NEK3 (Homo sapiens, UniProt P51956)
T26 construct: purchased Millipore, Inc. (KinaseProfiler service)
How it was run: as §1

Lyn = biological target: T27, Lyn (Homo sapiens, UniProt P07948)
T27 construct: purchased Millipore, Inc. (KinaseProfiler service)
How it was run: as §1

Tie2 = biological target: T28, Tie2 (Homo sapiens, UniProt Q02763)
T28 construct: purchased Millipore, Inc. (KinaseProfiler service)
How it was run: as §1

ITK = biological target: T29, ITK (Homo sapiens, UniProt Q08881)
T29 construct: purchased Millipore, Inc. (KinaseProfiler service)
How it was run: as §1

IGF-1R = biological target: T30, IGF-1R (Homo sapiens, UniProt P08069)
T30 construct: purchased Millipore, Inc. (KinaseProfiler service)
How it was run: as §1

CLK2 = biological target: T31, CLK2 (Homo sapiens, UniProt P49760)
T31 construct: purchased Millipore, Inc. (KinaseProfiler service)
How it was run: as §1

MST3 = biological target: T32, MST3 (Homo sapiens, UniProt Q9Y6E0)
T32 construct: purchased Millipore, Inc. (KinaseProfiler service)
How it was run: as §1

MAPKAP-K5 = biological target: T33, MAPKAP-K5 (Homo sapiens, UniProt Q8IW41)
T33 construct: purchased Millipore, Inc. (KinaseProfiler service)
How it was run: as §1

TNK2 = biological target: T34, TNK2 (Homo sapiens, UniProt Q07912)
T34 construct: purchased Millipore, Inc. (KinaseProfiler service)
How it was run: as §1

DAPK3 = biological target: T35, DAPK3 (Homo sapiens, UniProt O43293)
T35 construct: purchased Millipore, Inc. (KinaseProfiler service)
T35 sequence (O43293 whole entry): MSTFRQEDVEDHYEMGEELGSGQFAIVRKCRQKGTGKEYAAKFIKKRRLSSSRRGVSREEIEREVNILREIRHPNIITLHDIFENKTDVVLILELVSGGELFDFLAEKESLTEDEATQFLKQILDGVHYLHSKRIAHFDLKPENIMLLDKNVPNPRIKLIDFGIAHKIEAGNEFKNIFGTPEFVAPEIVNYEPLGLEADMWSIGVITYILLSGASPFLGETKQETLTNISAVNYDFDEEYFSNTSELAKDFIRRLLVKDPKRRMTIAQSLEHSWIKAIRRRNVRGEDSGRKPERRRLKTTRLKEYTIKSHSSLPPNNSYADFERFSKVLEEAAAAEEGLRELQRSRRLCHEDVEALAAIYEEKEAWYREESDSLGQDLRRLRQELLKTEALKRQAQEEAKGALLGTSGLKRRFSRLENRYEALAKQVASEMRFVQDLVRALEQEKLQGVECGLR
How it was run: as §1

MARK2 = biological target: T36, MARK2 (Homo sapiens, UniProt Q7KZI7)
T36 construct: purchased Millipore, Inc. (KinaseProfiler service)
How it was run: as §1

PDK1 = biological target: T37, PDK1 (Homo sapiens, UniProt O15530)
T37 construct: purchased Millipore, Inc. (KinaseProfiler service)
How it was run: as §1

SGK2 = biological target: T38, SGK2 (Homo sapiens, UniProt Q9HBY8)
T38 construct: purchased Millipore, Inc. (KinaseProfiler service)
How it was run: as §1

Rsk4 = biological target: T39, Rsk4 (Homo sapiens, UniProt Q9UK32)
T39 construct: purchased Millipore, Inc. (KinaseProfiler service)
T39 sequence (Q9UK32 whole entry): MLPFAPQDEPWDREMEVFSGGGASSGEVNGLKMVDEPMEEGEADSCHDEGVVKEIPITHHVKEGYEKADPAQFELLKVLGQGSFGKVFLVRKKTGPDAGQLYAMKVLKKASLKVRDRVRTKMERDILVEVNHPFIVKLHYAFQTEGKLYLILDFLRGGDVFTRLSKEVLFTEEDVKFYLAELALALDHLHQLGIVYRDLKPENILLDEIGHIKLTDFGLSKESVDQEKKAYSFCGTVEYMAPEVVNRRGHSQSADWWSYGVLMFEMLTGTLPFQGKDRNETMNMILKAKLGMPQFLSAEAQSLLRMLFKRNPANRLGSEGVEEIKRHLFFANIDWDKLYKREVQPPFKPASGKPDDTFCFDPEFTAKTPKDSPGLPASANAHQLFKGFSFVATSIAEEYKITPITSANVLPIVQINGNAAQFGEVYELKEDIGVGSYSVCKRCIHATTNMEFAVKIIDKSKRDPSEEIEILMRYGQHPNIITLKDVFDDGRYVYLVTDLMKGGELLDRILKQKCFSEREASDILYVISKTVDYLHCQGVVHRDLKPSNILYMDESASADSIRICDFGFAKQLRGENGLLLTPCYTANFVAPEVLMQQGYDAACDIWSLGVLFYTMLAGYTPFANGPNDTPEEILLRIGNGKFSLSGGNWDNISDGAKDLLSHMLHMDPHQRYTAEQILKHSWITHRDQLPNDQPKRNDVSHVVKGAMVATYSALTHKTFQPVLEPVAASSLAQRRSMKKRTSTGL
How it was run: as §1

GSK3beta = biological target: T40, GSK3beta (Homo sapiens, UniProt P49841)
T40 construct: purchased Millipore, Inc. (KinaseProfiler service)
How it was run: as §1

Axl = biological target: T41, Axl (Homo sapiens, UniProt P30530)
T41 construct: purchased Millipore, Inc. (KinaseProfiler service)
How it was run: as §1

Avg POC (PKD2): 94.5 POC
Avg POC (Fyn): 96.5 POC
Avg POC (HIPK1): 98.5 POC
Avg POC (CAMK2g): 97 POC
Avg POC (WNK2): 92.5 POC
Avg POC (PKCbetaI): 102.5 POC
Avg POC (PAK2): 105.5 POC
Avg POC (MKNK2): 111 POC
Avg POC (TrkB): 1.5 POC
Avg POC (MKK7): 125 POC
Avg POC (GSK3alpha): 109.5 POC
Avg POC (GRK5): 100 POC
Avg POC (KIT): 97.5 POC
Avg POC (CK1gamma2): 61.5 POC
Avg POC (EphA7): 109 POC
Avg POC (MYLK): 106.5 POC
Avg POC (PKCepsilon): 101.5 POC
Avg POC (IRAK1): 103 POC
Avg POC (Plk3): 100.5 POC
Avg POC (PKAC-alpha): 129.5 POC
Avg POC (PAK4): 97 POC
Avg POC (TSSK1): 104 POC
Avg POC (DDR2): 121.5 POC
Avg POC (PRKG1beta): 95.5 POC
Avg POC (MKK6): 107.5 POC
Avg POC (NEK3): 104.5 POC
Avg POC (Lyn): 104.5 POC
Avg POC (Tie2): 82 POC
Avg POC (ITK): 104 POC
Avg POC (IGF-1R): 80.5 POC
Avg POC (CLK2): 102 POC
Avg POC (MST3): 103.5 POC
Avg POC (MAPKAP-K5): 89.5 POC
Avg POC (TNK2): 93.5 POC
Avg POC (DAPK3): 105.5 POC
Avg POC (MARK2): 109.5 POC
Avg POC (PDK1): 104 POC
Avg POC (SGK2): 112 POC
Avg POC (Rsk4): 105.5 POC
Avg POC (GSK3beta): 112 POC
Avg POC (Axl): 115.5 POC
SMILES: COCCN1C[C@@H](NC(=O)Nc2c(C)c(-c3cnc(C)nc3)nn2-c2ccccc2)[C@H](c2cccc(F)c2)C1 [Compound 1, 1-((3S,4R)-4-(3-fluorophenyl)-1-(2-methoxyethyl)pyrrolidin-3-yl)-3-(4-methyl-3-(2-methylpyrimidin-5-yl)-1-phenyl-1H-pyrazol-5-yl)urea]
